# Assay results taken from patent publication US9238643B2, “Amide compounds” (Guangzhou Institutes of Biomedicine and Health, Chinese …, priority 2010, dated 2016).
# System: IL-1β secretion of BV2
# Test: Inhibition of LPS-induced IL-1β secretion of BV2 microglial cells (ELISA)
# Type: cell-based
# Conditions: BV-2, 24 hours; for IC50: BV2 cells, 300 ng/ml LPS induction, IL-1β by ELISA, read-out: IC50 of inhibition of the compounds of the present application to IL-1β secretion of BV2; for inhibition at 0.02 µM: Mus musculus, IL-1β secretion of BV2, compound concentration 20 nM, LPS induction, read-out: Inhibition rate (%) at 20 nM
# Method: 1. […] microglial cell BV2 and Glioma cell line C6 are incubated in DMEM culture medium with 10% FBS, and the 6th to 15th generation culture cells are applicable for compound activity selection. Culture cells are innoculated on the 24-well cell culturing plate with 50,000 cells/well, after one day culturing, switch to low serum medium (with 2% FBS) for another 16 hours culturing. Add 300 ng/ml (for induction of BV2 cells) or 1 mg/mL (for induction of C6 cells) LPS (Salmonella typhimutium) to the culture medium to induce the IL-1β secretion of culture cells. At the same time, add sample to be determined (with DMSO≦0.1%) at concentrations of 200 pM, 20 nM, 2 μM and 200 μM; add 0.1% DMSO to blank as solvent control.
# 2. 24 hours after LPS induction/drug treatment, collect the culture solution and quantitatively measure the level of IL-1β. Centrifuge the culture solution at 8,000 g for 10 min at 4° C., and remove the floating particle impurities. Dilute the supernant one time, and take 150 μL sample for ELISA (Biosource) measurement.
# 3. Treatment of culture cells and ELISA measurement are conducted with double blind method.
# 4 Inhibition efficiency of candidate compound is calculated according to formula, and IC50 of every kind of candidate compound is calculated. Inhibition efficiency(%)=([IL-1β]LPS induction−[IL-1β]medical treatment)/[IL-1β]LPS induction×100%. Formula
# 5. Efficiency evaluation of candidate compound: positive inhibition rate of compound to IL-1β secretion of BV2 is the standard judgment of compounds efficiency; negative inhibition rate of compound to IL-1β secretion of C6 is the standard judgment of compounds safety.
SMILES,IC50 [nM],inhibition at 0.02 µM [%]
"Cc1cc(-c2ccccc2)nnc1C(=O)N1CCN(c2ccc(F)cc2)CC1 [Compound 4, (4-(4-fluorophenyl)piperazinyl) (4-methyl-6-phenylpyridazinyl) ketone]",0.56,54.6
"Cc1cc(-c2ccccc2)nnc1C(=O)N1CCN(c2ncccn2)CC1 [Compound 5, (2-pyrimidylpiperazinyl)(4-methyl-6-phenylpyridazinyl)ketone]",0.6,54.5
"O=C(c1nc(-c2ccccc2)nc2ccccc12)N1CCN(c2ccc(F)cc2)CC1 [Compound 11, (4-(4-fluorophenyl)piperazinyl) (2-phenylquinazolinyl) ketone]",3.38,–
"O=C(c1nc(-c2ccccc2)nc2ccccc12)N1CCN(c2ncc(F)cn2)CC1 [Compound 12, (4-(5-fluoropyrimid-2-yl)piperazinyl)(2-phenylquinazolinyl) ketone]",1.42,–
"O=C(c1nc(-c2ccccc2)nc2ccccc12)N1CCN(c2ncccn2)CC1 [Compound 12a, (4-(pyrimid-2-yl)piperazinyl) (2-phenylquinazolinyl) ketone]",0.16,46.1
"O=C(c1nc(-c2ccccc2)nc2ccccc12)N1CCN(c2ccccn2)CC1 [Compound 13, (4-(2-pyridinyl)piperazinyl)(2-phenylquinazolinyl)ketone]",24.3,–
"O=C(c1n[nH]c2c(F)ccc(F)c12)N1CCN(c2ccc(F)cc2)CC1 [Compound 20, (4-(4-fluorophenyl)piperazinyl) (4,7-difluoroindazol-3-yl) ketone]",42.5,48.06 ± 0.0618
Cc1cc(-c2ccccc2)nnc1C(=O)N1CCN(c2ncc(F)cn2)CC1 [Compound 24],5.49,–
"Cc1cc(-c2ccccc2)nnc1C(=O)N1CCN(C)CC1 [Compound 26, (N-methylpiperazinyl) (4-methyl-6-phenylpyridazinyl) ketone]",0.11,–
